# Source: patent US6413975B1, “Purine derivatives having phosphodiesterase iv inhibition activity” (Euro-Celtique, S.A., priority 1999, dated 2002)
# Where a name gives a salt, the structure may show the parent alone.
# Tested on: Type IV PDE
# Assay: PDE IV inhibition: hydrolysis of [3H]-cyclic AMP by isolated Type IV PDE
# Format: biochemical, bovine
# Conditions: adenines, Table 4; cyclic AMP 0.2 μM; read-out: calc PDE IV IC50
# Protocol: The Type IV PDE is isolated from bovine tracheal smooth muscle using a procedure similar to that previously described by Silver, P. J., Hamel, L. T., Perrone, M. H. Bentley, R. G. Bushover, C. R., Evans, D. B.: Eur. J. Pharmacol. 150:85,1988.(1). Briefly, smooth muscle from bovine trachea is minced and homogenized using a polytron in 10 volumes of an extraction buffer containinhg 10 mM Tris-acetate (pH 7.5), 2 mM magnesium chloride, 1 mM dithiothreitol and 2,000 units/ml of aprotinin. This and all subsequent procedures are performed at 0-4° C. The homogenate is sonicated and then centrifiged at 48,000×g for 30 minutes. The resulting supernatant is applied to a DEAE Trisacryl M column previously equilibrated with sodium acetate and dithiothreitol. After applications of the sample, the column is washed with sodium acetate/dithiothreitol, after which the different forms of PDE are eluted from the column using a linear Tris-HCl/NaCl gradient. Fractions containing Type IV PDE are collected, dialyzed and concentrated to 14% of the original volume. The concentrated fractions are diluted to 50% with ethylene glycol and stored at -20° C.
# Enzyme activity is assessed by measuring the hydrolysis of [^3H]-cyclic AMP, as described by Thompson, W. J., Teraski, W. L., Epstein, P. N., Strada, S. J.: Adv. Cyclic Nucleotide Res. 10:69, 1979. The cyclic AMP concentration used in this assay is 0.2 μM, which approximates the Km value. Protein concentration is adjusted to ensure that no more than 15% of the available substrate is hydrolyzed during the incubation period.
# All test compounds are dissolved in dimethyl sulfoxide (final concentration of 2.5%). This concentration of dimethyl sulfoxide inhibits enzyme activity by approximately 10%.
row,SMILES,IC50
1,CCn1cnc(NCc2ccccc2)c2nc(C3CCCC3)nc1-2 [3-ethyl-8-cyclopentyl-6-benzylamino-3H-purine hydrochloride],62.4 µM
2,CCNc1ncn(CC)c2nc(C3CCCC3)nc1-2 [3-ethyl-8-cyclopentyl-6-ethylamino-3H-purine hydrochloride],28.3 µM
3,CCn1cnc(NCc2ccccc2)c2nc(C(C)C)nc1-2 [3-ethyl-8-isopropyl-6-benzylamino-3H-purine hydrochloride],28.9 µM
4,CCNc1ncn(CC)c2nc(C(C)C)nc1-2 [3-ethyl-8-isopropyl-6-ethylamino-3H-purine hydrochloride],52.2 µM
5,CCCCCCn1cnc(NC)c2ncnc1-2 [3-hexyl-6-methylamino-3H-purine hydrochloride],34.1 µM

# Same assay, conditions: adenines, Table 7; read-out: calc PDE IV IC50
row,SMILES,IC50
1,CCNc1ncn(CCc2ccc(Cl)cc2)c2nc(C(C)C)nc1-2 [3-{2-(4-chlorophenyl)-ethyl]-6-ethylamino-8-isopropyl-3H-purine],4.46 µM
2,"COc1ccc(Cn2cnc(N)c3nc(C(C)(C)OCc4ccc(F)cc4)nc2-3)cc1OC [6-Amino-3-(3,4-dimethoxybenzyl)-8-(1-(4-fluorobenzyloxy-1-methyl-ethyl)-3H-purine Hydrochloride]",1.85 µM
3,"C=C(C)c1nc2c(N)ncn(Cc3ccc(OC)c(OC)c3)c-2n1 [6-Amino-3-(3,4-dimethyoxybenzyl)-8-(1-methylethenyl)-3H-purine]",3.7 µM
4,C=C(C)c1nc2c(N)ncn(Cc3ccc(OC)c(OC4CCCC4)c3)c-2n1 [6-Amino-3-(3-cyclopentyloxy-4-methoxy-benzyl)-8-(1-methylethenyl)-3H-purine],0.091 µM
5,COc1ccc(Cn2cnc(N)c3ncnc2-3)cc1OC1CCCC1 [6-Amino-3-(3-cyclopentyloxy-4-methoxybenzyl)-3H-purine],0.31 µM
6,COc1ccc(Cn2cnc(N)c3nc(C(C)(C)OCc4ccccc4)nc2-3)cc1OC [6-Amino-8-(1-benzyloxy-1-methyl-ethyl)-3-(34-dimethoxybenzyl)-3H-purine Hydrochloride],0.94 µM
7,CCNc1ncn(Cc2cc[n+]([O-])cc2)c2nc(C(C)C)nc1-2 [6-Ethylamino-3-(1-oxopyridin-4-yl-methyl)-8-isopropyl-3H-purine],385 µM
8,CCCCOc1cc(Cn2cnc(NCC)c3nc(C(C)C)nc2-3)ccc1OC [6-Ethylamino-3-(3-butoxy-4-methoxy-benzyl)-8-isopropyl-3H purine],1.4 µM
9,CCNc1ncn(Cc2ccc(OC)c(OCC3CCN(C)CC3)c2)c2nc(C(C)C)nc1-2 [6-Ethylamino-3-[3-(1-methylpiperidin-4-yl-methoxy)-4-methoxy-benzy]-8-isopropyl-3H-purine],6.6 µM
10,"CCNc1ncn(Cc2ccc(OC)c(OC3CN4CCC3CC4)c2)c2nc(C(C)C)nc1-2 (centres unmarked) [6-Ethylamino-3-[3-(2,2,2)-azabicyclooctan-3-yloxy)-4-methoxy]-8-isopropyl-3H-purine]",2.05 µM
11,"CCNc1ncn(Cc2ccc(OC)c(OCCN(C)C)c2)c2nc(C(C)C)nc1-2 [6-Ethylamino-3-[3-(2,2-dimethylaminoethoxy-4-methoxy)]-8-isopropyl-3H-purine]",8.95 µM
12,CCNc1ncn(Cc2ccc(OC)c(OC3CCC(O)C3)c2)c2nc(C(C)(C)O)nc1-2 (centres unmarked) [6-Ethylamino-3-[3-(3-hydroxycyclopentyloxy)-4-methoxybenzyl)]-8-(1-hydroxy-1-methylethyl)-3H-purine],2.6 µM
13,CCNc1ncn(Cc2ccc(OC)c(OCC3CCCC3)c2)c2nc(C(C)C)nc1-2 [6-Ethylamino-3-[3-cyclopentylmethoxy-4-methoxy-benzyl]-8-isopropyl-3H-purine],12.5 µM
14,CCNc1ncn(Cc2ccc(OC)c(OCc3cc[n+]([O-])cc3)c2)c2nc(C(C)C)nc1-2 [6-Ethylamino-3-[(3-pyridin-4-yl-methoxy)N-oxide-4-methoxy]-8-isopropyl-3H-purine],4.5 µM
15,"CCNc1ncn(Cc2ccc(OC)c(O[C@@H]3C[C@H]4CC[C@@H](C3)N4C)c2)c2nc(C(C)C)nc1-2 [6-Ethylamino-3-[(exo-8-methyl-8-azabicyclo(3,2,1)-octan-3-yl-oxy)-4-methoxy-benzy]-8-isopropyl-3-H-purine]",6.02 µM
16,CCNc1ncn(Cc2ccc(OC)c(OCc3ccncc3)c2)c2nc(C(C)C)nc1-2 [6-Ethylamino-8-isopropyl-3-[3-(pyridin-4-yl-methoxy)-4-methoxy-benzyl]-3H-purine],24.5 µM
17,"CC(C)c1nc2c(N)ncn(Cc3ccc4c(c3)OCO4)c-2n1 [6-amino-3(3,4-methylenedioxybenzyl)-8-isopropyl-3H-purine]",4.1 µM

row,SMILES,IC50
1,"COc1ccc(Cn2cnc(N)c3nc(C(C)C)nc2-3)cc1OC [6-amino-3-(3,4-dimethoxybenzyl)-8-isopropyl-3H-purine]",0.92 µM
2,"CC(C)(OCc1ccc(F)cc1)c1nc2c(N)ncn(Cc3ccc4c(c3)OCO4)c-2n1 [6-amino-3-(3,4-methylenedioxybenzyl)-8-[1-(4-fluorobenzyloxy)-1-methyl-ethyl]-3H-purine]",0.72 µM
3,COc1ccc(Cn2cnc(N)c3nc(C(C)C)nc2-3)cc1O [6-amino-3-(3-hydroxy-4-methoxy)-benzyl)-8-isopropyl-3H-purine],15.1 µM
4,CC(C)c1nc2c(N)ncn(Cc3ccc(Cl)cc3)c-2n1 [6-amino-3-(4-chlorobenzyl)-8-isopropyl-3H-purine],20.8 µM
5,COc1ccc(Cn2cnc(N)c3nc(C(C)C)nc2-3)cc1OCc1ccccc1 [6-amino-3-((3-benzyloxy-4-methoxy)-bezyl)-8-isopropyl-3H-purine],6.4 µM
6,COc1ccc(Cn2cnc(N)c3nc(C(C)(C)O)nc2-3)cc1OCCCCO [6-amino-3-[3-(4-hydroxybutoxy-4-methoxy)benzyl]-8-(1-hydroxy-1-methylethyl)-3H-purine hydrochloride],17.1 µM
7,COc1ccc(Cn2cnc(N)c3nc(C(C)(C)OCc4ccccc4)nc2-3)cc1OCc1ccccc1 [6-amino-3-[(3-benzyloxy-4-methoxy)benzyl]-8-[(1-benzyloxy-1-methyl)ethyl]-3H-purine],3.12 µM
8,COc1ccc(Cn2cnc(N)c3nc(C(C)(C)O)nc2-3)cc1OC1CCCC1 [6-amino-3-[(3-cyclopentyloxy-4-methoxy)benzyl]-8-[(1-hydroxy-1-methyl)ethyl]-3H-purine],0.25 µM
9,CC(C)c1nc2c(N)ncn(CC3CCCC3)c-2n1 [6-amino-3-cyclopentylmethyl-8-isopropyl-3H-purine],23.2 µM
10,COc1ccc(Cn2cnc(N)c3nc(C(C)C)nc2-3)cc1OCCCCO [6-amino-8-isopropyl-3-[(4-methoxy-3-([(4-hydroxybutoxy))benzyl]-3H-purine],4.2 µM
11,"CCNc1nc(Cc2ccc(OC)c(OC)c2)[nH]c2nc(C(C)C)nc1-2 [6-ethylamino-2-(3,4-dimethoxybenzyl)-8-isopropyl-3H-purine]",0.31 µM
12,"CCNc1ncn(Cc2ccc3c(c2)OCO3)c2nc(C(C)C)nc1-2 [6-ethylamino-3-(3-,4-methylenedioxybenzyl)-8-isopropyl-3H-purine]",0.44 µM
13,CCNc1ncn(Cc2ccc(OC)c(O)c2)c2nc(C(C)C)nc1-2 [6-ethylamino-3-(3-hydroxy-4-methoxybenzyl)-8-isopropyl-3H-purine],2.73 µM
14,CCNc1ncn(Cc2ccc(F)cc2)c2nc(C(C)C)nc1-2 [6-ethylamino-3-(4-fluorobenzyl)-8-isopropyl-3H-purine],1.85 µM
15,CCNc1ncn(Cc2ccc(OC)c(OC3CCCC3)c2)c2nc(C(C)C)nc1-2 [6-ethylamino-3-[(3-cyclopentyloxy-4-methoxy)benzyl]-8-isopropyl-3H-purine],0.66 µM
16,CCNc1ncn(Cc2ccc(OC)c(O)c2)c2nc(C(C)(C)O)nc1-2 [6-ethylamino-3-[(3-hydroxy-4-methoxy)benzyl]-8-[(1-hydroxy-1-methyl)ethyl]- -3H-purine],6.5 µM

# Same assay, conditions: read-out: PDE IV I50
row,SMILES,IC50
1,CCCn1cnc(NC2CCCC2)c2nc(C3CC3)nc1-2 [6-Cyclopentylamino-8-cyclopropyl-3-propyl-3H-purine Hydrochloride],0.03 µM
2,"CCCn1c(=S)nc(NC2CCCC2)c2[nH]c(C3CC3)nc21 [6-cyclopentylamino-8-cyclopropyl-3,7-dihydro-3-propyl-2-thio-2H-purin-2-one hydrochloride]",7.41 µM

# Same assay, conditions: thioisoguanines, Table 2; cyclic AMP 0.2 μM; read-out: Calc IC50 PDE IV
row,SMILES,IC50
1,"CCCn1c(=S)nc(N)c2[nH]c(C3CC3)nc21 [6-amino-8-cyclopropyl-3,7-dihydro-3 propyl-2-thio-2H-purin-2-one]",39.4 µM
2,"CCCn1c(=S)nc(NCc2ccccc2)c2[nH]c(C3CC3)nc21 [6-benzylamino-8-(cyclopropyl)-3,7-dihydro-3-propyl-2-thio-2H-purin-2-one hydrochloride]",33.6 µM
3,"CCCCNc1nc(=S)n(CCC)c2nc(C3CC3)[nH]c12 [6-butylamino-8-cyclopropyl-3,7-dihydro-3-propyl-2-thio-2H-purin-2-one]",24.5 µM
4,"CCCn1c(=S)nc(NC2CCCC2)c2[nH]c(C(C)C)nc21 [6-cyclopentylamino-3,7-dihydro-8-isopropyl-3-propyl-2-thio-2H-purin-2-one]",45.1 µM
